Reference: patent US20170188606A1, “COMPOUNDS, COMPOSITIONS, AND METHODS FOR REDUCING OR E[…] TASTE” (Chromocell Corporation, priority 2014, published 2017)

Tests used:
[1] = tested on: bitter taste in grape-flavored cough syrup (Robitussin Cough and Cold CF); test: Cough syrup 2-AFC analysis (Example 3); type: in vivo, Humans; details: 0.1 ppm in cough syrup; testers n=7
Experimental: (§1) Compound 1 was screened for a reduction of bitter taste due to a bitter tastant in children's grape flavored cough syrup (Robitussin Cough and Cold CF™, Lot #: R10494, Exp. 07/15). Compound 1 was solubilized in […] (PG), dosed into the cough syrup, and placed in 3 mL amounts in sample vials. Control samples contained an equal amount of PG to samples containing Compound 1. Testers (n=7) were asked to use a plastic transfer pipette for tasting, rinsing with water between samples and choosing the less bitter sample via the two alternative forced choice (2-AFC) method.

[2] = tested on: bitter taste of rebaudioside A; test: Descriptive analysis (DA) panel taste test, aqueous rebaudioside A
sweetness perception = test: Inherent sweetness assessment using 2-AFC method vs 1.5% sucrose; type: in vivo, human; details: for % correct: % needed 67%; for x (choosing Sample 1 as sweeter): n 36
Experimental: Sucrose solutions were prepared by adding sucrose to water to achieve the desired concentrations. Compounds were first prepared as 250-fold concentrated stocks in a 50% ethanol (200 proof), 50% water solution. These concentrated stocks were then diluted in water to achieve a final ethanol concentration of 0.2%. The control solutions were also normalized to 0.2% ethanol.
Compound 1 was evaluated in an aqueous solution for sweetness perception in a 2-AFC test. This test was a double-blinded, randomized study where taste panelists evaluate a pair of solutions one at a time for sweetness. Panelists were instructed not to eat or drink (except water) for at least one hour before the test. During the test, panelists were instructed to sip each sample, swirl it around their mouth and then expectorate. After tasting each sample in the pair, panelists were instructed to record the sample that is “sweeter” in taste. Panelists cleansed their palates by rinsing with water, eating a cracker and waiting for an interval of about 5 minutes. Each pair was tasted twice. All samples were tasted at ambient temperatures. Compound 1 (at various concentrations) was evaluated in comparison to the control, 1.5% sucrose. The flavor and extract manufacturers association (FEMA) characterizes any compound that has a sweetness intensity greater than that of 1.5% in a water base as inherently sweet.
Control Sample (Sample 1): 1.5% sucrose in water
Test Samples (Sample 2): • 10 μg/mL (10 ppm) Compound 1 in 0.2% ethanol in water • 2 μg/mL (2 ppm) Compound 1 in 0.2% ethanol in water • 0.5 μg/mL (500 ppb) Compound 1 in 0.2% ethanol in water
Eighteen subjects completed two replicates of a 2-AFC test for sweetness. Thirty three responses indicated the Control Sample was sweeter for each of the test samples evaluated. Three responses indicated the Test Sample was sweeter for each of the test samples evaluated. Using a beta binomial distribution, p=0.000 (two-sided alternative).

[3] = tested on: bitter taste receptor (T2R); details: Compound 1 3.2 mM in the absence of rebaudioside A; vs vehicle control
Experimental: Both the rebaudioside A and Compound 1 solutions were prepared in a standard HEPES buffer solution. Rebaudioside A was evaluated at a concentration of 825 μM and Compound 1 was evaluated at 3.2 mM (in the presence and absence of 825 μM rebaudioside A) and compared to vehicle control (HEPES buffer solution). Cells were incubated with a calcium responsive dye for one hour at 37 C and then exposed to rebaudioside A, Compound 1 (in the presence and absence of 825 μM rebaudioside A) and vehicle control. Change in fluorescence prior to compound addition and after compound addition was monitored for five minutes using a Hamamatsu Functional Drug Screening System (FDSS) 6000. The difference in fluorescence response over vehicle control was calculated using maximal cellular responses for each compound.

[4] = tested on: bitterness of 500 ppm RebA; test: Discrimination testing with sureness (Latin square 2-AFC) and R-index analysis, aqueous RebA; type: in vivo, Humans; details: 5 ppm in 500 ppm RebA, Discrim. Sureness, N 34, vs control
Source text: The discrimination testing with sureness extends the simple yes/no task of discrimination test in a signal detection procedure to include a sureness rating scale. The discrimination test principle is based on two alternative forced choice (2-AFC) manner, in this methodology, panelists are presented with multiple samples, in which one sample is a control, and the other sampled are test variants. A blind control is included in the test variants along with a known control. Panelists are asked to first discriminate between the known control and a variant by identifying which the sample is less bitter. Second, panelists rate their sureness of their response (e.g., sure, unsure, or guess).
To minimize bias and prevent panelist expectation of sample order, a Latin square randomization design is utilized. The samples within a set will be randomized and the sets are randomized via Latin square. The number of presentations is equally distributed. Each of the test samples is evaluated against a negative control sample to calculate R-index score and associated p-value. […] R-index is utilized to indicate the degree of difference between the test and the control sample. […]
The blocker candidates were evaluated in a “sip and spit” format using this methodology and analysis and were the results of at least 30 observations (e.g., 15 panelists and 2 replications or 10 panelists 3 replications).

[5] = tested on: bitter taste of Orange VitaminWater (Stevia Leaf Extract, rebaudioside A); test: Descriptive analysis (DA) panel taste test, Orange VitaminWater
[6] = tested on: bitter taste in grape-flavored cough syrup (Robitussin Cough and Cold CF); test: Cough syrup 2-AFC analysis with 50 ppb and 100 ppb (Example 4); type: in vivo, Humans; details: for Cmpd. Chosen Overall: chosen as less bitter, n=11
Experimental: as §1, with “2.5” for “3”, “vials to afford 50 ppb or 100 ppb Compound 1 in the samples.” for “vials.”, “(n=11)” for “(n=7)”

[7] = Panel A, 500 ppm RebA + Compound 1 @7.5 ppm in water, 15 cm scale
[8] = Panel B, fully solubilized, 500 ppm Reb-A + Compound 1 @0.3 ppm, aqueous, 0.2% ethanol
[9] = Compound 1 @ 0.5 μg/mL in water vs 1.5% sucrose
[10] = Compound 1 @ 2 μg/mL in water vs 1.5% sucrose
[11] = Compound 1 @ 10 μg/mL in water vs 1.5% sucrose
[12] = Panel A, Orange Vitamin Water Zero + Compound 1 @5 ppm, 15 cm scale
[13] = Panel B, fully solubilized, Orange VitaminWater (head: 500 ppm Reb-A) + Compound1 @0.25 ppm, 0.2% ethanol

CN[C@@H](Cc1c[nH]c2ccccc12)C(=O)O [Compound 1, N-methyl-L-tryptophan]
Compound Chosen as Less Bitter [1]: 5
Control Chosen as Less Bitter [1]: 1
No Choice Made [1]: 1
Bitter [2, 7]: 5.32
Bitter Aft [2, 7]: 3.18
HPB [2, 7]: 7.70
Licorice [2, 7]: 6.58
Sweet Aft [2, 7]: 4.71
Sweet Linger [2, 7]: 2.55
Bitter [2, 8]: 3.4
Bitter Aft [2, 8]: 1.6
HPB [2, 8]: 5
d′ (sweetness perception; [9]): 1.956
% correct (sweetness perception; [9]): 92%
x (choosing Sample 1 as sweeter) (sweetness perception; [9]): 33
d′ (sweetness perception; [10]): 1.956
% correct (sweetness perception; [10]): 92%
x (choosing Sample 1 as sweeter) (sweetness perception; [10]): 33
d′ (sweetness perception; [11]): 1.956
% correct (sweetness perception; [11]): 92%
x (choosing Sample 1 as sweeter) (sweetness perception; [11]): 33
inherent sweetness (sweetness perception; concentrations up to 10 μg/mL (10 ppm), 0.2% ethanol in water, vs 1.5% sucrose): do not elicit inherent sweetness
fluorescent response from Compound 1 on its own [3]: not significantly different from vehicle control
R-index [4]: 63.3%
Bit Aft [5, 12]: 2.94
Bitter [5, 12]: 4.97
HPB [5, 12]: 6.83
Licorice [5, 12]: 2.74
Swt Aft [5, 12]: 3.89
Swt Linger [5, 12]: 1.99
Bitter [5, 13]: 3.9
HPB [5, 13]: 5.4
Chosen if 1st in Pair ([6]; 50 ppb in cough syrup): 5/6
Chosen if 2nd in Pair ([6]; 50 ppb in cough syrup): 2/5
Chosen in 1st Pair ([6]; 50 ppb in cough syrup): 5/6
Chosen in 2nd Pair ([6]; 50 ppb in cough syrup): 2/5
Cmpd. Chosen Overall ([6]; 50 ppb in cough syrup): 7/11
Chosen if 1st in Pair ([6]; 100 ppb in cough syrup): 4/5
Chosen if 2nd in Pair ([6]; 100 ppb in cough syrup): 3/6
Chosen in 1st Pair ([6]; 100 ppb in cough syrup): 3/5
Chosen in 2nd Pair ([6]; 100 ppb in cough syrup): 4/6
Cmpd. Chosen Overall ([6]; 100 ppb in cough syrup): 7/11
